The test system of this assay is production of thrombin via activation of the extrinsic cascade (tissue factor pathway). Nature of the assay: whole blood activity screen: inhibition of thrombin production when clotting is activated via the tissue factor pathway (extrinsic cascade). Format: biochemical. Conditions: nine concentrations, in triplicate, FIG. 4. As for the experimental part:
The compound (MP3117) of Example 1 was tested for its ability to inhibit the production of thrombin via activation of the extrinsic cascade. In particular, an assay that included a whole blood activity screen was performed. In this regard, nine aqueous solutions containing varying concentrations of the compound of Example 1 were tested for their ability to inhibit thrombin production when clotting was activated via the tissue factor pathway (in triplicate). The data from the assay was also utilized to extract the IC50 for the compound. Incidentally, “IC50” refers to the amount of a compound necessary to inhibit 50% of the active enzyme to which it binds.

Each structure is given as a SMILES string.

For the compound `N=C(N)c1ccc(CNC(=O)c2nc(N)c(C(=O)NCc3ccc(C(=N)N)cc3)nc2N)cc1` [Example 1, 3,6-diamino-N2,N5-bis(4-carbamimidoylbenzyl)pyrazine-2,5-dicarboxamide], the IC50 (in general, the point on the concentration scale where inhibition reaches its midpoint) worked out at 12.4 ± 0.79 nM.

The record behind these values is patent US8350032B2, “Integrated photoactive agents for real-time monitoring of hemostasis” (MediBeacon Development, LLC, priority 2007, dated 2013).
